What all share (assay type): cell-based
The target of one assay is T1, ER (Homo sapiens, UniProt P03372).
T1 construct: endogenous in cells; host or cells: T47d-kb-Luc (T47D stably transfected with a luciferase reporter gene only)
T1 sequence (P03372 1-595): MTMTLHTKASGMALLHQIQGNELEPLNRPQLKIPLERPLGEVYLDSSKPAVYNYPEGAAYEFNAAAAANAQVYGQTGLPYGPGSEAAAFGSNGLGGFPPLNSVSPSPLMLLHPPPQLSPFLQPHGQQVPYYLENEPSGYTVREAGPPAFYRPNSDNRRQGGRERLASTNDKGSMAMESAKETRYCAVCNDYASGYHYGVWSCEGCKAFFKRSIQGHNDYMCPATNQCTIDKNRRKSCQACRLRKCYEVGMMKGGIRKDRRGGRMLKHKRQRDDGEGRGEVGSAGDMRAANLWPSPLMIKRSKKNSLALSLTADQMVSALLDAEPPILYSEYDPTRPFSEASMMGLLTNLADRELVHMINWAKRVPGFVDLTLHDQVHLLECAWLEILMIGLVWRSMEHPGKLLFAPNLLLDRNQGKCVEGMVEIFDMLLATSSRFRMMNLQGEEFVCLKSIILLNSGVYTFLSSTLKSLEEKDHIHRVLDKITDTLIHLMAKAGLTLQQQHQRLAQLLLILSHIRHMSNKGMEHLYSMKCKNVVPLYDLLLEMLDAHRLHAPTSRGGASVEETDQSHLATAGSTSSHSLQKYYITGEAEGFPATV
The assay can be described thus: ER antagonism (T47D ERE luciferase), T47d-kb-Luc cells. Particulars: read-out: IC50 (ER antagonistm). A digest of the protocol:
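Five sample concentrations, each in quadruplicate and repeated in at least three experiments, were tested for blocking of estradiol activity. Values were expressed relative to the estradiol control. The cell system was the T47d-kb-Luc stable breast cancer line.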

For a further assay, the target named is T2, ERα (Homo sapiens, UniProt P03372).
T2 construct: endogenous in cells; host or cells: MCF-7
T2 sequence (P03372 1-595): T1 sequence (P03372 1-595)
The assay is described as follows: ER degradation in MCF-7 cells (Western blot). As to conditions: for DC50: ER degradation, 24 hours; for Dmax: MCF7, Maximal ER degradation, read-out: Dmax. In a few lines: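 ERα levels assessed by Western blot (50 μg lysate protein, infrared scanner) after 24-hour exposure of MCF-7 cells to varied compound concentrations. Values reported as DC50, the concentration halving ER expression, and Dmax, the maximal ER reduction achieved across tested concentrations.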
Background: Immunoblotting shows a protein as a band on a membrane.

Assay [1] concerns MCF-7 breast cancer cells. The assay can be described thus: MCF-7 proliferation / cell viability assay. As to conditions: Homo sapiens, MCF7; MCF-7 proliferation with 0.1 nM 17-beta estradiol; read-out: IC50 (anti-proliferation). In a few lines: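 Survival ratio, with vehicle (DMSO) as 100%, was derived from Coulter-counted viable cell numbers. Cells were grown in 5% FBS DMEM and dosed for 5 days across six concentrations between 10^−10 M and 10^−5 M.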

For orientation: DC50 means the midpoint of the concentration-degradation curve. The low end stands for a more potent degrader, the high end for a less potent degrader. As usually defined, the Dmax is the greatest extent of degradation seen.

For `CC/C(=C(\c1ccc(B(O)O)cc1)c1ccc(N2CCN(CCCC3CCN(c4ccc5c(c4)CN(C4CCC(=O)NC4=O)C5=O)CC3)CC2)cc1)c1ccccc1` (stereo not shown) [Compound 57, (Z)-(4-(1-(4-(4-(3-(1-(2-(2,6-dioxopiperidin-3-yl)-1-oxoisoindolin-5-yl)piperidin-4-yl)propyl)piperazin-1-yl)phenyl)-2-phenylbut-1-en-1-yl)phenyl)boronic acid], at ER, the IC50 is 10 to 50 nM. In addition, on ERα, the DC50 is less than 10 nM and the Dmax was greater than 90%. Besides, the IC50 in assay [1] lay in the range of 10 to 50 nM.

As for `CC/C(=C(\c1ccc(B(O)O)cc1)c1ccc(C2CCN(CCCN3CCN(c4ccc5c(c4)CN(C4CCC(=O)NC4=O)C5=O)CC3)CC2)cc1)c1ccccc1` (stereo not shown) [Compound 49, (Z)-(4-(1-(4-(1-(3-(4-(2-(2,6-dioxopiperidin-3-yl)-1-oxoisoindolin-5-yl)piperazin-1-yl)propyl)piperidin-4-yl)phenyl)-2-phenylbut-1-en-1-yl)phenyl)boronic acid], the values for the IC50 (at ER; in assay [1]) were less than 10 nM and 10 to 50 nM, respectively. Also, the DC50 on ERα was less than 10 nM. In addition, on ERα, the Dmax is greater than 90%.

For `CC/C(=C(/c1ccc(OCCN2CCN(CC3CCN(c4ccc5c(c4)CN(C4CCC(=O)NC4=O)C5=O)CC3)CC2)cc1)c1ccc(B(O)O)cc1)c1ccccc1` (stereo not shown) [Compound 21, (Z)-(4-(1-(4-(2-(4-((1-(2-(2,6-dioxopiperidin-3-yl)-1-oxoisoindolin-5-yl)piperidin-4-yl)methyl)piperazin-1-yl)ethoxy)phenyl)-2-phenylbut-1-en-1-yl)phenyl)boronic acid], the IC50 at ER is less than 10 nM. For the same compound, on ERα, the DC50 was less than 10 nM and the Dmax was greater than 90%. Besides, the IC50 in assay [1] was less than 10 nM.

In the case of `CC/C(=C(\c1ccc(O)cc1)c1ccc(N2CCN(C(=O)N3CCC(CN4CCN(c5ccc6c(c5)CN(C5CCC(=O)NC5=O)C6=O)CC4)CC3)CC2)cc1)c1ccccc1` (stereo not shown) [Compound 113, (E)-3-(5-(4-((1-(4-(4-(1-(4-hydroxyphenyl)-2-phenylbut-1-en-1-yl)phenyl)piperazine-1-carbonyl)piperidin-4-yl)methyl)piperazin-1-yl)-1-oxoisoindolin-2-yl)piperidine-2,6-dione], the IC50 at ER was less than 10 nM. Further, on ERα, the DC50 is less than 10 nM and the Dmax was greater than 90%. Also, in assay [1], the IC50 was less than 10 nM.

With `CC/C(=C(/c1ccc(OCCCCCN2CCN(c3ccc4c(c3)CN(C3CCC(=O)NC3=O)C4=O)CC2)cc1)c1ccc(B(O)O)cc1)c1ccccc1` (stereo not shown) [Compound 35, (Z)-(4-(1-(4-((5-(4-(2-(2,6-dioxopiperidin-3-yl)-1-oxoisoindolin-5-yl)piperazin-1-yl)pentyl)oxy)phenyl)-2-phenylbut-1-en-1-yl)phenyl)boronic acid], the IC50 on ER was in the range of 10 to 50 nM. Moreover, at ERα, the DC50 lay within 10 to 50 nM and the Dmax is greater than 90%. In addition, in assay [1], the IC50 fell in the range of 10 to 50 nM.

In the case of `CC/C(=C(/c1ccc(B(O)O)cc1)c1ccc(N2CCN(CCCN3CCN(c4ccc5c(c4)C(=O)N(C4CCC(=O)NC4=O)C5=O)CC3)CC2)cc1)c1ccccc1` (stereo not shown) [Compound 44, (E)-(4-(1-(4-(4-(3-(4-(2-(2,6-dioxopiperidin-3-yl)-1,3-dioxoisoindolin-5-yl)piperazin-1-yl)propyl)piperazin-1-yl)phenyl)-2-phenylbut-1-en-1-yl)phenyl)boronic acid], the results for the IC50 (on ER; in assay [1]) were less than 10 nM and 10 to 50 nM, respectively. On ERα, this compound returned a DC50 of less than 10 nM. For the same compound, at ERα, the Dmax was greater than 90%.

`CC/C(=C(/c1ccc(B(O)O)cc1)c1ccc(N2CCC(CCCN3CCN(c4ccc5c(c4)C(=O)N(C4CCC(=O)NC4=O)C5=O)CC3)CC2)cc1)c1ccccc1` (stereo not shown) [Compound 52, (E)-(4-(1-(4-(4-(3-(4-(2-(2,6-dioxopiperidin-3-yl)-1,3-dioxoisoindolin-5-yl)piperazin-1-yl)propyl)piperidin-1-yl)phenyl)-2-phenylbut-1-en-1-yl)phenyl)boronic acid]: the IC50 on ER lay within 10 to 50 nM. For the same compound, on ERα, the DC50 was less than 10 nM and the Dmax was greater than 90%. For the same compound, the IC50 in assay [1] lay within 10 to 50 nM.

As for `CC/C(=C(\c1ccc(B(O)O)cc1)c1ccc(N2CCN(C(=O)N3CCN(c4ccc5c(c4)CN([C@@H]4CCC(=O)NC4=O)C5=O)CC3)CC2)cc1)c1ccccc1` [Compound 105], the IC50 (at ER; in assay [1]) was less than 10 nM in each case. The same compound yielded a DC50 on ERα of less than 10 nM. For the same compound, the Dmax at ERα was greater than 90%.

With `CC/C(=C(/c1ccc(B(O)O)cc1)c1ccc(N2CCC(CCN3CCN(c4ccc5c(c4)CN(C4CCC(=O)NC4=O)C5=O)CC3)CC2)cc1)c1ccccc1` (stereo not shown) [Compound 8, (E)-(4-(1-(4-(4-(2-(4-(2-(2,6-dioxopiperidin-3-yl)-1-oxoisoindolin-5-yl)piperazin-1-yl)ethyl)piperidin-1-yl)phenyl)-2-phenylbut-1-en-1-yl)phenyl)boronic acid], the IC50 at ER was less than 10 nM; in assay [1], 10 to 50 nM. Also, the DC50 on ERα is 10 to 50 nM. The Dmax on ERα was greater than 90%.

Turning to `CC/C(=C(\c1ccc(B(O)O)cc1)c1ccc(N2CCN(C(=O)N3CCN(c4ccc5c(c4)CN([C@H]4CCC(=O)NC4=O)C5=O)CC3)CC2)cc1)c1ccccc1` [Compound 104, (S,Z)-(4-(1-(4-(4-(4-(2-(2,6-dioxopiperidin-3-yl)-1-oxoisoindolin-5-yl)piperazine-1-carbonyl)piperazin-1-yl)phenyl)-2-phenylbut-1-en-1-yl)phenyl)boronic acid], the IC50 (on ER; in assay [1]) was less than 10 nM each time. The compound further showed a DC50 on ERα of less than 10 nM. Also, at ERα, the maximal degradation (Dmax) was greater than 90%.

Turning to `CC/C(=C(/c1ccc(OCCN2CCN(C(=O)N3CCC(CN4CCN(c5ccc6c(c5)CN(C5CCC(=O)NC5=O)C6=O)CC4)CC3)CC2)cc1)c1ccc(B(O)O)cc1)c1ccccc1` (stereo not shown) [Compound 91, (Z)-(4-(1-(4-(2-(4-(4-((4-(2-(2,6-dioxopiperidin-3-yl)-1-oxoisoindolin-5-yl)piperazin-1-yl)methyl)piperidine-1-carbonyl)piperazin-1-yl)ethoxy)phenyl)-2-phenylbut-1-en-1-yl)phenyl)boronic acid], the IC50 (at ER; in assay [1]) was less than 10 nM throughout. The DC50 on ERα is less than 10 nM. In addition, the Dmax on ERα was greater than 90%.

Turning to `CC/C(=C(\c1ccc(O)cc1)c1ccc(N2CCN(C(=O)N3CCN(c4ccc5c(c4)CN([C@@H]4CCC(=O)NC4=O)C5=O)CC3)CC2)cc1)c1ccccc1` [Compound 99, (R,E)-3-(5-(4-(4-(4-(1-(4-hydroxyphenyl)-2-phenylbut-1-en-1-yl)phenyl)piperazine-1-carbonyl)piperazin-1-yl)-1-oxoisoindolin-2-yl)piperidine-2,6-dione], the IC50 on ER was less than 10 nM. On ERα, the DC50 lay within 10 to 50 nM and the Dmax was greater than 90%. Also, the IC50 in assay [1] lay within 10 to 50 nM.

For the compound `CC/C(=C(\c1ccc(B(O)O)cc1)c1ccc(N2CCC(CNC3CCN(c4ccc5c(c4)C(=O)N(C4CCC(=O)NC4=O)C5)CC3)CC2)cc1)c1ccccc1` (stereo not shown) [Compound 13, (Z)-(4-(1-(4-(4-(((1-(2-(2,6-dioxopiperidin-3-yl)-3-oxoisoindolin-5-yl)piperidin-4-yl)amino)methyl)piperidin-1-yl)phenyl)-2-phenylbut-1-en-1-yl)phenyl)boronic acid], the IC50 at ER was less than 10 nM. Besides, at ERα, the DC50 was less than 10 nM and the Dmax is greater than 90%. In addition, the IC50 in assay [1] is less than 10 nM.

Consider `CC/C(=C(\c1ccc(B(O)O)cc1)c1ccc(N2CCN(CCCN3CCN(c4ccc5c(c4)CN(C4CCC(=O)NC4=O)C5=O)CC3)CC2)cc1)c1ccccc1` (stereo not shown) [Compound 45, (Z)-(4-(1-(4-(4-(3-(4-(2-(2,6-dioxopiperidin-3-yl)-1-oxoisoindolin-5-yl)piperazin-1-yl)propyl)piperazin-1-yl)phenyl)-2-phenylbut-1-en-1-yl)phenyl)boronic acid], for which the results for the IC50 (on ER; in assay [1]) were less than 10 nM and 10 to 50 nM, respectively. For the same compound, the DC50 at ERα was less than 10 nM. Moreover, the Dmax on ERα was greater than 90%.

As for `CC/C(=C(/c1ccc(O)cc1)c1ccc(N2CCN(C(=O)N3CCN(c4ccc5c(c4)CN(C4CCC(=O)NC4=O)C5=O)CC3)CC2)cc1)c1ccccc1` (stereo not shown) [Compound 100], the IC50 at ER was less than 10 nM. Further, on ERα, the DC50 was less than 10 nM and the Dmax was greater than 90%. In assay [1], the IC50 lay in the range of 10 to 50 nM.

`CC/C(=C(\c1ccc(OCCN2CCC(CN3CCN(c4ccc5c(c4)CN([C@@H]4CCC(=O)NC4=O)C5=O)CC3)CC2)cc1)c1ccc(B(O)O)cc1)c1ccccc1` [Compound 76]: the IC50 at ER was less than 10 nM. Also, at ERα, the DC50 was less than 10 nM and the Dmax is greater than 90%. Moreover, the IC50 in assay [1] is less than 10 nM.

The values are drawn from patent US20220348595A1, “COMPOUNDS AND METHODS FOR THE TARGETED DEGRADATION OF ESTROGEN RECEPTORS” (Endotarget Inc., priority 2021, published 2022).
